# From US20090306059A1, “CYCLIC AMINE DERIVATIVE HAVING SUBSTITUTED ALKYL GROUP” (priority 2005, published 2009)
# Where a name gives a salt, the structure may show the parent alone.
# Test system: platelet aggregation caused by ADP in platelet-rich plasma (PRP) after oral administration
# Assay: Test Example 2: ex vivo platelet aggregation inhibitory effect
# Type: in vivo, rat (male Sprague-Dawley)
# Settings: 10 mg/kg orally, 4 hours before blood sampling, rat PRP, ADP final concentration 3 μM, maximum platelet aggregation ratio, read-out: Test Example 1 (% inhibition) 10 mg/kg
# Method: Male Sprague-Dawley rats (8-week old, Japan SLC, Inc.), 3 to 4 animals per group, were used for the test. The platelet aggregation was measured with an automatic platelet aggregometer (MCM Hema Tracer 313M, MC Medical, Inc.) by a partially modified method of Bom et al., The Journal of Physiology, Vol. 168, Section 178 (1963). Test compounds suspended in 5% Arabian gum solution or 10% dimethylacetamide/64% polyethylene glycol 400/16% Tween 80 solution were orally administered in a dose ratio of 1 mL/kg 4 hours before blood sampling. Vehicle was orally administered 4 hours in a dose ratio of 1 mL/kg before the sampling of the blood for the control group. 6.3 ml of blood was sampled from the ventral aorta of a rat anesthetized with pentobarbital (40 mg/kg) using 3.8% (w/v) sodium citrate solution (0.7 ml) as an anticoagulant. The obtained blood containing citrate was centrifuged (230 g, 15 minutes, room temperature) to separate PRP. The blood after the separation of PRP was further centrifuged (2,000 g, 10 minutes, room temperature) to separate PPP. After the number of blood platelet in PRP was measured with a multi-item automatic blood corpuscle counter (KX-21N, Sysmex Corporation), PPP was added thereto to adjust the blood platelet to 5×10^8/ml. After PRP (240 μl) was pipetted into cuvettes, the cuvettes were set in the automatic platelet aggregometer. After preliminary warming (37° C.) for 1.5 minutes, 10 μl of ADP solution (final concentration 3 μM) was added to cause platelet aggregation. Platelet aggregation was measured for 5 minutes and the maximum platelet aggregation ratio was determined.
row,SMILES,inhibition at 10 mg/kg [%]
1,"C/C(Cn1cc(C(=O)O)cn1)=C1/CN(C(C(=O)C2CC2)c2ccccc2F)CCC1S (centres unmarked) [Example 62, (E)-3-{[2-(4-Carboxy-1H-pyrazol-1-yl)-1-methyl]ethylidene}-1-[2-cyclopropyl-1-(2-fluorophenyl)-2-oxoethyl]-4-sulfanylpiperidine hydrochloride]",94
2,"CCOC(=O)CN(C)C/C=C1\CN(C(C(=O)C2CC2)c2ccccc2F)CCC1S (centres unmarked) [Example 82, (E)-1-[2-Cyclopropyl-1-(2-fluorophenyl)-2-oxoethyl]-3-{2-[N-(ethoxycarbonylmethyl)-N-methylamino]ethylidene}-4-sulfanylpiperidine dihydrochloride]",81
3,"CC(=O)SC1CCN(C(C(=O)C2CC2)c2ccccc2F)C/C1=C\CO (centres unmarked) [Example 32, (E)-4-(Acetylsulfanyl)-1-[2-cyclopropyl-1-(2-fluorophenyl)-2-oxoethyl]-3-(2-hydroxyethylidene)piperidine]",86
4,"CCOC(=O)CN1CCN(C/C=C2\CN(C(C(=O)C3CC3)c3ccccc3F)CCC2SC(C)=O)CC1=O (centres unmarked) [Example 13, (E)-4-(Acetylsulfanyl)-1-[2-cyclopropyl-1-(2-fluorophenyl)-2-oxoethyl]-3-{2-[4-(ethoxycarbonylmethyl)-3-oxopiperazin-1-yl]ethylidene}piperidine]",63
5,"CC(=O)SC1CCN(C(C(=O)C2CC2)c2ccccc2F)C/C1=C\CN1CCN(CCC(=O)O)CC1=O (centres unmarked) [Example 24, (E)-4-(Acetylsulfanyl)-3-(2-{4-[2-(carboxyethyl)]-2-oxopiperazin-1-yl}ethylidene)-1-[2-cyclopropyl-1-(2-fluorophenyl)-2-oxoethyl]piperidine dihydrochloride]",85
6,"CCOC(=O)CCN1CCN(C/C=C2\CN(C(C(=O)C3CC3)c3ccccc3F)CCC2SC(C)=O)C(=O)C1 (centres unmarked) [Example 21, (E)-4-(Acetylsulfanyl)-1-[2-cyclopropyl-1-(2-fluorophenyl)-2-oxoethyl]-3-(2-{4-[2-(ethoxycarbonyl)ethyl]-2-oxopiperazin-1-yl}ethylidene)piperidine dihydrochloride]",90
7,"CCOC(=O)CN(C)C/C=C1\CN(C(C(=O)C2CC2)c2ccccc2F)CCC1SC(C)=O (centres unmarked) [Example 81, (E)-4-(Acetylsulfanyl)-1-[2-cyclopropyl-1-(2-fluorophenyl)-2-oxoethyl]-3-{2-[N-(ethoxycarbonylmethyl)-N-methylamino]ethylidene}piperidine dihydrochloride]",83
8,"O=C(O)C/C=C1\CN(C(C(=O)C2CC2)c2ccccc2F)CCC1S (centres unmarked) [Example 64, (E)-3-(2-Carboxyethylidene)-1-[2-cyclopropyl-1-(2-fluorophenyl)-2-oxoethyl]-4-sulfanylpiperidine hydrochloride]",94
9,"CC(=O)SC1CCN(C(C(=O)C2CC2)c2ccccc2F)C/C1=C/CO (centres unmarked) [Example 66, (Z)-4-(Acetylsulfanyl)-1-[2-cyclopropyl-1-(2-fluorophenyl)-2-oxoethyl]-3-(2-hydroxyethylidene)piperidine hydrochloride]",87
10,"CCOC(=O)CN(C)C/C=C1/CN(C(C(=O)C2CC2)c2ccccc2F)CCC1S (centres unmarked) [Example 85, (Z)-1-[2-Cyclopropyl-1-(2-fluorophenyl)-2-oxoethyl]-3-{2-[N-(ethoxycarbonylmethyl)-N-methylamino]ethylidene}-4-sulfanylpiperidine dihydrochloride]",82
11,"CCOC(=O)C1CCN(C/C=C2\CN(C(C(=O)C3CC3)c3ccccc3F)CCC2S)CC1 (centres unmarked) [Example 30, (E)-1-[2-Cyclopropyl-1-(2-fluorophenyl)-2-oxoethyl]-3-{2-[4-(ethoxycarbonyl)piperidin-1-yl]ethylidene}-4-sulfanylpiperidine dihydrochloride]",93
12,"CCOC(=O)CCN1CCN(C/C=C2\CN(C(C(=O)C3CC3)c3ccccc3F)CCC2SC(C)=O)CC1=O (centres unmarked) [Example 17, (E)-4-(Acetylsulfanyl)-1-[2-cyclopropyl-1-(2-fluorophenyl)-2-oxoethyl]-3-(2-{4-[2-(ethoxycarbonyl)ethyl]-3-oxopiperazin-1-yl}ethylidene)piperidine]",92
13,"CCOC(=O)CCCN(C)C/C=C1/CN(C(C(=O)C2CC2)c2ccccc2F)CCC1SC(C)=O (centres unmarked) [Example 89, (Z)-4-(Acetylsulfanyl)-1-[2-cyclopropyl-1-(2-fluorophenyl)-2-oxoethyl]-3-(2-{N-[3-(ethoxycarbonyl)propyl]-N-methylamino}ethylidene)piperidine dihydrochloride]",83
14,"COC(=O)[C@@H]1CCCN1C/C=C1\CN(C(C(=O)C2CC2)c2ccccc2F)CCC1S (stereo partly drawn) [Example 26, (E)-1-[2-Cyclopropyl-1-(2-fluorophenyl)-2-oxoethyl]-3-{2-[(2S)-(methoxycarbonyl)pyrrolidin-1-yl]ethylidene}-4-sulfanylpiperidine dihydrochloride]",92
15,"COC(=O)[C@@H]1CCCN1C/C=C1\CN(C(C(=O)C2CC2)c2ccccc2F)CCC1SC(C)=O (stereo partly drawn) [Example 25, (E)-4-(Acetylsulfanyl)-1-[2-cyclopropyl-1-(2-fluorophenyl)-2-oxoethyl]-3-{2-[(2S)-(methoxycarbonyl)pyrrolidin-1-yl]ethylidene}piperidine dihydrochloride]",92
16,"CCOC(=O)CN1CCC(/C=C2\CN(C(C(=O)C3CC3)c3ccccc3F)CCC2S)CC1 (centres unmarked) [Example 38, (E)-1-[2-Cyclopropyl-1-(2-fluorophenyl)-2-oxoethyl]-3-{[1-(ethoxycarbonylmethyl)piperidin-4-yl]methylidene}-4-sulfanylpiperidine dihydrochloride]",66
17,"O=C(O)CCCN1CCN(C/C=C2\CN(C(C(=O)C3CC3)c3ccccc3F)CCC2S)C(=O)C1 (centres unmarked) [Example 72, (E)-3-(2-{4-[3-(Carboxypropyl)]-2-oxopiperazin-1-yl}ethylidene)-1-[2-cyclopropyl-1-(2-fluorophenyl)-2-oxoethyl]-4-sulfanylpiperidine dihydrochloride]",76
18,"CCOC(=O)CN(C)C/C=C1/CN(C(C(=O)C2CC2)c2ccccc2F)CCC1SC(C)=O (centres unmarked) [Example 84, (Z)-4-(Acetylsulfanyl)-1-[2-cyclopropyl-1-(2-fluorophenyl)-2-oxoethyl]-3-{2-[N-(ethoxycarbonylmethyl)-N-methylamino]ethylidene}piperidine dihydrochloride]",82
19,"COC(=O)[C@@H]1C[C@@H](O)CN1C/C=C1\CN(C(C(=O)C2CC2)c2ccccc2F)CCC1SC(C)=O (stereo partly drawn) [Example 78, (E)-4-(Acetylsulfanyl)-1-[2-cyclopropyl-1-(2-fluorophenyl)-2-oxoethyl]-3-{2-[(2S,4R)-4-hydroxy-2-(methoxycarbonyl)pyrrolidin-1-yl]ethylidene}piperidine dihydrochloride]",75
20,"O=C(O)C1CCN(C/C=C2\CN(C(C(=O)C3CC3)c3ccccc3F)CCC2S)CC1 (centres unmarked) [Example 31, (E)-3-{2-[4-(Carboxypiperidine)-1-yl]ethylidene}-1-[2-cyclopropyl-1-(2-fluorophenyl)-2-oxoethyl]-4-sulfanylpiperidine dihydrochloride]",82
